The source of these data is ChEMBL document CHEMBL1138452, “1-Sulfonylindazoles as potent and selective 5-HT6 ligands” (Bioorg Med Chem Lett, 2009).

The target of data set [1] is T1, 5-hydroxytryptamine receptor 6 (Homo sapiens, UniProt P50406). As to the kind of experiment: Antagonist activity at human cloned 5HT6 receptor expressed in human HeLa cells assessed as blockage of 5-HT-stimulated cAMP formation. Type of data set: functional, cell-based. Background: cAMP levels reflect the balance of adenylyl cyclase and phosphodiesterase activity.

In data set [2] the target is T1, 5-hydroxytryptamine receptor 6. Description: Displacement of [3H]LSD from human cloned 5HT6 receptor expressed in human HeLa cells. It is filed as cell-based. On the technique in general: Loss of bound radioactivity is the signal in a displacement assay; it reports binding, not function.
Data set [3] shares this target. Description: Agonist activity at human 5HT6 receptor expressed in CHOK1 cells assessed as increase in 5HT-induced intracellular calcium level at 0.1 to 10 uM by FLIPR assay. Type of data set: functional, cell-based. The conditions noted are these: CHO-K1.
The nature of data set [4]: Metabolic stability in human microsomes assessed as half life. It is filed as ADME, Microsome.
Data set [5] can be described thus: Metabolic stability in rat microsomes assessed as half life. It is filed as ADME, Microsome.
Data set [6] concerns the target Cytochrome P450 3A4 (Homo sapiens, UniProt P08684). Description: Inhibition of CYP3A4. It is filed as ADME.
Data set [7] concerns the target Cytochrome P450 2D6 (Homo sapiens, UniProt P10635). Description: Inhibition of CYP2D6. It is filed as ADME.
In data set [8] the target is Cytochrome P450 2C9 (Homo sapiens, UniProt P11712). Description: Inhibition of CYP2C9. It is filed as ADME.
A short description of data set [9]: Oral bioavailability in Sprague-Dawley rat at 10 mg/kg. It is filed as ADME, organism-based. The conditions noted are these: in vivo.
The test system of data set [10] is Rattus norvegicus. As to the kind of experiment: Cognitive enhancing effect in Sprague-Dawley rat assessed as reversal of 24 hrs delay-induced retention deficit behavior at 10 mg/kp, po by novel object recognition assay. It is filed as functional, organism-based.
Data set [11] has as its target T2, 5-hydroxytryptamine receptor 1A (Homo sapiens, UniProt P08908).
T2 sequence (P08908 whole entry): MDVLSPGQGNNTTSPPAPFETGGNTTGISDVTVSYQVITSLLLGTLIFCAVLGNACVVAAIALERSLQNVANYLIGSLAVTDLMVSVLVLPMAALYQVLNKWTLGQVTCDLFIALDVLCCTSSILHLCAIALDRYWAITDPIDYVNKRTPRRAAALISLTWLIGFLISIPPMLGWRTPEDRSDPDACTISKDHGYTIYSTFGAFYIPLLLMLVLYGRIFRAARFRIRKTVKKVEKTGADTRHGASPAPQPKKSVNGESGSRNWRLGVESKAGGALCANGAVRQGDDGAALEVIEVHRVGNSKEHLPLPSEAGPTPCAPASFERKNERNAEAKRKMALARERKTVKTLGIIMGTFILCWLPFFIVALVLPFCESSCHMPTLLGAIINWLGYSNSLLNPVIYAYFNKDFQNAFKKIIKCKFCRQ
As to the kind of experiment: Binding affinity to 5HT1a receptor.

The target in data set [12] is 5-hydroxytryptamine receptor 1B (Homo sapiens, UniProt P28222). Description: Binding affinity to 5HT1b receptor.
The target in data set [13] is 5-hydroxytryptamine receptor 1D (Homo sapiens, UniProt P28221). As to the kind of experiment: Binding affinity to 5HT1d receptor.
Data set [14] has as its target 5-hydroxytryptamine receptor 2B (Homo sapiens, UniProt P41595). Description: Binding affinity to 5HT2b receptor.
Data set [15] addresses T3, 5-hydroxytryptamine receptor 2C (Homo sapiens, UniProt P28335).
T3 sequence (P28335 whole entry): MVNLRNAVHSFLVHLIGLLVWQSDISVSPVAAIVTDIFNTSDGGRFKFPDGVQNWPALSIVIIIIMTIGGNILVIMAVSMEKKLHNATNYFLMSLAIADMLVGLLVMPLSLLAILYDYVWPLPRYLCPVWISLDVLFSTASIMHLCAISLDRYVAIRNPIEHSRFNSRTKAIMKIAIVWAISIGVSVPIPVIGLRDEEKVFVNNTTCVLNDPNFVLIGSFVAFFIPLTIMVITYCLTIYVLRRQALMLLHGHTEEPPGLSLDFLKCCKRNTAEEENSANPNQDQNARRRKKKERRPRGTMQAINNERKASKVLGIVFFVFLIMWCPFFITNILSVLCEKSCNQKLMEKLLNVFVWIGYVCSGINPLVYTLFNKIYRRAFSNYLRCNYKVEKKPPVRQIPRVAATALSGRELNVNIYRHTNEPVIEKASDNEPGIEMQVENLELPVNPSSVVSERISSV
As to the kind of experiment: Binding affinity to 5HT2c receptor.

Data set [16] has as its target 5-hydroxytryptamine receptor 7 (Homo sapiens, UniProt P34969). As to the kind of experiment: Binding affinity to 5HT7 receptor.
Data set [17] has as its target T4, Alpha-2A adrenergic receptor (Homo sapiens, UniProt P08913).
T4 sequence (P08913 whole entry): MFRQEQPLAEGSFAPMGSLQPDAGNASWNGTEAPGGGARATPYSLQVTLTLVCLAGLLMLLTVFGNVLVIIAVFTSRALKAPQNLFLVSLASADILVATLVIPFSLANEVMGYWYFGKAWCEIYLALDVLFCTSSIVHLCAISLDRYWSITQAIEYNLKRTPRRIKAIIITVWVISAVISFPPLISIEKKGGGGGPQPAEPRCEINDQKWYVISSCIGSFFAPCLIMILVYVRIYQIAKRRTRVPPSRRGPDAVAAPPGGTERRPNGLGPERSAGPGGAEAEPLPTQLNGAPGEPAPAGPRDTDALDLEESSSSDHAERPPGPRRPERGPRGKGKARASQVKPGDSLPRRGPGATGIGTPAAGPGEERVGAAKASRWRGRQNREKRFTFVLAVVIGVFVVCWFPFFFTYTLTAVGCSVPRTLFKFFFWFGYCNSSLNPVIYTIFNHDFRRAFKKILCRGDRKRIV
Description: Binding affinity to adrenergic alpha2A receptor.

Data set [18] has as its target D(2) dopamine receptor (Homo sapiens, UniProt P14416). Description: Binding affinity to dopamine D2 receptor.

Active and inactive are the calls of the source.

5-hydroxytryptamine receptor 2B, sequence (P41595 whole entry): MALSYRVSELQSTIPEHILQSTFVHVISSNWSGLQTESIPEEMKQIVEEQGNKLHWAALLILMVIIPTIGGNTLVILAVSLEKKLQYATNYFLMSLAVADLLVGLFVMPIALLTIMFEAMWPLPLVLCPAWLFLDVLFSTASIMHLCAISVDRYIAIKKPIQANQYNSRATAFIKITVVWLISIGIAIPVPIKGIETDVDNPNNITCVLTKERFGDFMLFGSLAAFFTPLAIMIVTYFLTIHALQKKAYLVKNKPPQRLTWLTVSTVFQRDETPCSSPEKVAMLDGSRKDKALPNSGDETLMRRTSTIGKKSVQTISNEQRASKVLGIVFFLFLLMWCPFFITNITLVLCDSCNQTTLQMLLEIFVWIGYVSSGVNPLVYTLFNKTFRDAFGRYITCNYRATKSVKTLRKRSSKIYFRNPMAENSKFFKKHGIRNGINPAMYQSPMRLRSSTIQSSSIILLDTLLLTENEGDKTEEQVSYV
D(2) dopamine receptor, sequence (P14416 whole entry): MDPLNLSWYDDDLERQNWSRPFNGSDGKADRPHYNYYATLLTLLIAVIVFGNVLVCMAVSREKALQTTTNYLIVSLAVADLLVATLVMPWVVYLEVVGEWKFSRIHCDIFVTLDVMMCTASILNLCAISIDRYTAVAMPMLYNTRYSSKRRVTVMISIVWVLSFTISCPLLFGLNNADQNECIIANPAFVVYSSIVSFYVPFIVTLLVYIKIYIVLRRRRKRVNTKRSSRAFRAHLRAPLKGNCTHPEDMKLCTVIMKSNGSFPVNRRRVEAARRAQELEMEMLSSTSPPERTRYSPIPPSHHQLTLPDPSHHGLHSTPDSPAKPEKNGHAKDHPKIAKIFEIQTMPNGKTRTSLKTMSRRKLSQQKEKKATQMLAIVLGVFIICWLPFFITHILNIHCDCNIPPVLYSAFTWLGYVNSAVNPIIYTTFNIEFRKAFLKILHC
T1 sequence (P50406 whole entry): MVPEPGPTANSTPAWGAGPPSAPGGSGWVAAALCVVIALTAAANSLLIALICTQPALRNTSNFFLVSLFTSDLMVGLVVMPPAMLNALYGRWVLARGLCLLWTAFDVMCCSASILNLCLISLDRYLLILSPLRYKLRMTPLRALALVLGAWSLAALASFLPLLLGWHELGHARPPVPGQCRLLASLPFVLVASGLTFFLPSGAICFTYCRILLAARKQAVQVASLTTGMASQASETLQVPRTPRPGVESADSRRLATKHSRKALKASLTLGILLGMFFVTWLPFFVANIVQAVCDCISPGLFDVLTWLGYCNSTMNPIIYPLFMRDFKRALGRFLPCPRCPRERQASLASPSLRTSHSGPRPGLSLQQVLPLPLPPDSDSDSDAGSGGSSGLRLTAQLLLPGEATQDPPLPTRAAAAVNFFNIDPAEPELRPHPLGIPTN
Cytochrome P450 2C9, sequence (P11712 whole entry): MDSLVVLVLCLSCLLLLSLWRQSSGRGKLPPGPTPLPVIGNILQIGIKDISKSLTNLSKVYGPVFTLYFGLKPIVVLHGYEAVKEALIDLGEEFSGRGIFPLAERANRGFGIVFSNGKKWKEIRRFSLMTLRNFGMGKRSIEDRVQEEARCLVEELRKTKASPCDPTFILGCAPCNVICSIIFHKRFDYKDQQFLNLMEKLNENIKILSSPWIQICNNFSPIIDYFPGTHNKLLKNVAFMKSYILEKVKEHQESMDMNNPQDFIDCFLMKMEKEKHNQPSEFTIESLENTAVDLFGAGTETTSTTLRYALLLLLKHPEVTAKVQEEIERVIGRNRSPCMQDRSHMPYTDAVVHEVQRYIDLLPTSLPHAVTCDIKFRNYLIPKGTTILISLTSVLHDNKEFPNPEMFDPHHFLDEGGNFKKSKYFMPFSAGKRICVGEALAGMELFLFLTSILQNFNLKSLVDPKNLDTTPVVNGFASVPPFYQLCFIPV
Cytochrome P450 3A4, sequence (P08684 whole entry): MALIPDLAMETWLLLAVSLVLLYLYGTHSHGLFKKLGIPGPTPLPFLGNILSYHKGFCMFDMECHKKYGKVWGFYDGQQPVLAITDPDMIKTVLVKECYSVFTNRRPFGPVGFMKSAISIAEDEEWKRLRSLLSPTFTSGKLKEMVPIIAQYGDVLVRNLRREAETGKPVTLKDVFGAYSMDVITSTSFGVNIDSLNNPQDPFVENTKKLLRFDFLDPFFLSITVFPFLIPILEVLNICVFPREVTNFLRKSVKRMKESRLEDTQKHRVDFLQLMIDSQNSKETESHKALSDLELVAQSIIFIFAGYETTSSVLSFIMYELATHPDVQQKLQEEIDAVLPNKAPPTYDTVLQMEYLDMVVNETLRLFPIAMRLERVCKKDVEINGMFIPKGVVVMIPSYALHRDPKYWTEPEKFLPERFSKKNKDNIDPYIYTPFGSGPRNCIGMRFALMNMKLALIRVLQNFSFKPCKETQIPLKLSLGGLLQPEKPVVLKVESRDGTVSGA
5-hydroxytryptamine receptor 1D, sequence (P28221 whole entry): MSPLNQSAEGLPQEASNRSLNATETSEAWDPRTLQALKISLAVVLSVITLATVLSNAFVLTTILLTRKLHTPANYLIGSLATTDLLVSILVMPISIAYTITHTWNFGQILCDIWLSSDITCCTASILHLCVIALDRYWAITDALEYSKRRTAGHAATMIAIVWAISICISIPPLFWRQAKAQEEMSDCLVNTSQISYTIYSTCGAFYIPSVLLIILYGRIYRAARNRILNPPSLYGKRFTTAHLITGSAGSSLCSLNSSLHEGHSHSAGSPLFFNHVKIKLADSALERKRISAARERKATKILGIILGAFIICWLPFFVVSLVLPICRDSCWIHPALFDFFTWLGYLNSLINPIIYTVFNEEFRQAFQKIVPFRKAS
5-hydroxytryptamine receptor 1B, sequence (P28222 whole entry): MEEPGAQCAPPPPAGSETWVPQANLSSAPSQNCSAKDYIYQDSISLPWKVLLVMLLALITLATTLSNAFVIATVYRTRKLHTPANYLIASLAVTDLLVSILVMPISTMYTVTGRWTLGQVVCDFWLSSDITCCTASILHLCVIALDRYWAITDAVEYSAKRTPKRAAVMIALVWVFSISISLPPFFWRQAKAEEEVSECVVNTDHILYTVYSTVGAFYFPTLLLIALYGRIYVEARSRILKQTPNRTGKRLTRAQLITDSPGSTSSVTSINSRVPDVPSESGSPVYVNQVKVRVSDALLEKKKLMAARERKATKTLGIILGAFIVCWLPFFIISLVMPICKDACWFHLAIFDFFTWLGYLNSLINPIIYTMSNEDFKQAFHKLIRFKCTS
5-hydroxytryptamine receptor 7, sequence (P34969 whole entry): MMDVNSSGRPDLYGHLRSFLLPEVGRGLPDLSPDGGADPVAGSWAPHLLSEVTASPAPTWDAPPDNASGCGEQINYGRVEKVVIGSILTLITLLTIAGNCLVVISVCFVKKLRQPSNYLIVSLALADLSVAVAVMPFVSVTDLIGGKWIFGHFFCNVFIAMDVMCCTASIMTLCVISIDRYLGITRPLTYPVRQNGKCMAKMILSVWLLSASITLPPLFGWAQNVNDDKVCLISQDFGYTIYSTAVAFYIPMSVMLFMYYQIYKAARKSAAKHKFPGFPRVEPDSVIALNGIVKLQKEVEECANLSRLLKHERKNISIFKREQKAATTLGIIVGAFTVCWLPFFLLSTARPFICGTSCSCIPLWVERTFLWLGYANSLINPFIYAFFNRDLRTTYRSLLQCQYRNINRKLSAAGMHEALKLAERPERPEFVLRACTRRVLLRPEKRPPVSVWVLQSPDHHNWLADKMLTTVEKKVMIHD
Cytochrome P450 2D6, sequence (P10635 whole entry): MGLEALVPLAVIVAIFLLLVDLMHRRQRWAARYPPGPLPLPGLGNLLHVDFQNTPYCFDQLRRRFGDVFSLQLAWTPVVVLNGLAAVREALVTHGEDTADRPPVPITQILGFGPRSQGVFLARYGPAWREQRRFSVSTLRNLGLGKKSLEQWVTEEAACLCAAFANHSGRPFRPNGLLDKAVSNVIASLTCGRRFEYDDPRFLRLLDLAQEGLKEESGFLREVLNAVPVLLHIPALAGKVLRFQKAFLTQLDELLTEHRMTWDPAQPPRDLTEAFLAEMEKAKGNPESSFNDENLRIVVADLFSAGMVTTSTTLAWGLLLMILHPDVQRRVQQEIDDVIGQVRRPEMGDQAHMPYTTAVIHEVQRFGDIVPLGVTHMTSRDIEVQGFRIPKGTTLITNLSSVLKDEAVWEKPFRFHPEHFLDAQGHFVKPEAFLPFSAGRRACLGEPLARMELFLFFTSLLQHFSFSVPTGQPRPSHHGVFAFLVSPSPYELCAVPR

What is called IC50 is the concentration that gives 50% inhibition. In the case of `CN(C)CCC(=O)Nc1ccc2cnn(S(=O)(=O)c3cccc4ccccc34)c2c1`, in data set [1], the IC50 came out at 0.053 µM and the Imax turned out to be 100%.

In the case of `CCN(CC)CCC(=O)Nc1ccc2cnn(S(=O)(=O)c3cccc4ccccc34)c2c1`, in data set [1], the IC50 is 0.26 µM and the Imax amounted to 100%.

The term Ki denotes the dissociation constant of the complex between target and ligand, obtained from inhibition or displacement. In [2], `O=C(Nc1ccc2cnn(S(=O)(=O)c3cccc4ccccc34)c2c1)[C@@H]1CCCNC1` returned a Ki of 0.004 µM. In addition, the outcome in [1] was Active.

In [2], `O=S(=O)(c1cccc2ccccc12)n1ncc2ccc(NCC3CCNCC3)cc21` showed a Ki of 0.018 µM.

With `NCCC(=O)Nc1ccc2cnn(S(=O)(=O)c3cccc4ccccc34)c2c1`, the result in data set [3] was inactive.

One may read the half-life as the time needed for the level to fall by half in the phase considered. By bioavailability is commonly meant dose-corrected exposure relative to a reference, in per cent. Read a low bioavailability as poor availability. As to `O=C(Nc1ccc2cnn(S(=O)(=O)c3cccc4ccccc34)c2c1)C1CCCNC1` (racemic), in data set [3], the result was inactive. The half-life in data set [4] is more than 30 min; in [5], 8 min. Further, the IC50 was found to be 260 µM in [6], 110 µM in data set [7], 140 µM in data set [8] and 0.01 µM in [1]. The molecule also yielded a bioavailability in data set [9] of 24%. Besides, the outcome in [10] was Active. Besides, the Ki in data set [2] is 0.0013 µM; in data set [11] it was 5.6 µM; in [12] it was 1.8 µM; in data set [13], more than 2 µM; in data set [14] it was 0.174 µM; in data set [15] it was more than 2 µM. Further, the values for the inhibition constant (Ki) in data set [16], in data set [17] and in data set [18] were 5.8 µM, more than 2 µM and more than 2 µM, respectively. Further, in data set [1], the Imax is 100%.

With `CNCCC(=O)Nc1ccc2cnn(S(=O)(=O)c3cccc4ccccc34)c2c1`, in data set [1], the IC50 was determined as 0.026 µM and the Imax stood at 100%.

For `NCCC(=O)Nc1cccc2c1cnn2S(=O)(=O)c1cccc2ccccc12`, the half-life was more than 30 min in data set [4] and 28 min in data set [5]. Besides, the IC50 stood at 30 µM in data set [6], 200 µM in data set [7], 7 µM in data set [8] and 0.011 µM in [1]. In data set [9], this molecule displayed a bioavailability of 7%. For the same molecule, the Imax in data set [1] was 100%. Also, the Ki in data set [11] is 6.4 µM; in [12], more than 2 µM; in data set [13], more than 2 µM; in data set [14] it was 0.155 µM; in [15] it was more than 2 µM; in [16], 5.1 µM. Moreover, the Ki in [17] and in data set [18] was more than 2 µM in each case.

`O=C(CCN1CCCCC1)Nc1ccc2cnn(S(=O)(=O)c3cccc4ccccc34)c2c1`: in [1], the IC50 stood at 0.17 µM and the Imax was determined as 100%.

`O=C(Nc1ccc2cnn(S(=O)(=O)c3cccc4ccccc34)c2c1)C1CCNCC1`: in data set [3], the result was inactive. Further, the half-life in data set [4] is more than 30 min; in data set [5], 11 min. Besides, the IC50 in data set [6] stood at 61 µM; in [7], 350 µM; in [8] it was 370 µM; in data set [1] it was 0.008 µM. Moreover, the bioavailability in [9] came to 5%. For the same molecule, the Imax in data set [1] amounted to 100%. Also, the Ki in [11] is 8.5 µM; in data set [12], more than 2 µM; in data set [13] it was more than 2 µM; in data set [14], 0.13 µM; in data set [15] it was more than 2 µM; in data set [16] it was 6.9 µM. For the same molecule, the Ki in data set [17] and in data set [18] was more than 2 µM in each case.

In data set [2], `O=C(Nc1ccc2cnn(S(=O)(=O)c3cccc4ccccc34)c2c1)[C@H]1CCCNC1` displayed a Ki of 0.0032 µM. In [1], the result was Active.
